# Assay results taken from patent US20160318856A1, “Substituted Urea eIF2alpha Kinase Activators” (THE BRIGHAM AND WOMEN'S HOSPITAL, INC., priority 2013, published 2016).
# Like-named read-outs stand apart in the source and are kept apart here.
# Key:
# [1] = tested on: eIF2α phosphorylation (eIF2•GTP•Met-tRNAi ternary complex; HRI activation); assay: surrogate dual luciferase eIF2α phosphorylation (ternary complex) assay; format: cell-based, human; conditions: for maximal fold induction: Homo sapiens, surrogate eIF2α phosphorylation assay, read-out: Emax (F/R)
# Text: The dual luciferase expression vector and other plasmids used for these studies were previously described (see, for example, Ziegeler, G. et al. Journal of Biological Chemistry 2010, 285(20), 15408-19). The ternary complex assay, surrogate of eIF2α phosphorylation, has been described elsewhere (see, for example, Chen, T. et al. Nature Chemical Biology 2011, 7(9), 610-6). Briefly, the pBISA vector, which contains seven copies of the tetracycline-regulated transactivator response element (TRE), is flanked on both sides by minimal human cytomegalovirus (CMV) minimal promoters allowing bi-directional transcription and two MCSs (multiple cloning sites). Firefly and renilla luciferases were subcloned into MCS-I and MCS-II, respectively. This plasmid, designated pBISA-DL, transcribes two mRNAs that contain the 90 nucleotide plasmid derived 5′UTR (same sequence in both mRNAs), and the ORF encoding either firefly or renilla luciferase followed by a polyadenylation sequence. This plasmid was further modified by inserting the 5′UTR of ATF-4 mRNA into MCS-I in front of the firefly luciferase mRNA. Transcription from this unit generates an mRNA that contains the firefly luciferase ORF preceded by a 5′UTR composed of 90 nucleotides derived from the plasmid and 267 nucleotides derived from the 5′UTR of ATF-4 mRNA. Transcription from the other unit generates an mRNA that contains the renilla luciferase ORF proceeded only by the 90-nucleotide plasmid-derived sequence in the 5′UTR (pBISA-DL (ATF-4)) (see, for example, Chen, T. et al. Nature Chemical Biology 2011, 7(9), 610-6).
# Cells expressing firefly and renilla luciferases were assayed with a dual glow luciferase assay kit, per manufacturer's instruction (Promega Inc., Madison, Wis.). The data calculations were carried out as the ratio of firefly to renilla luciferase signal.
# A library of 1900 urea compounds was screened in the surrogate dual luciferase eIF2α phosphorylation (ternary complex) assay. This library was originally assembled and screened for inhibition of sEH by Hammock's group at UC-Davis (see, for example, Chen, T. et al. Nature Chem Biol 2011, 7, 610-616; Ziegeler, G et al. J Biol Chem 2010, 285, 15408-15419). We developed this assay in order to identify compounds that activate HRI, taking advantage of the fact that activated HRI phosphorylates eIF2α thereby reducing the amount of the eIF2•GTP•Met-tRNAi ternary complex that results in inhibition of translation of many mRNAs but paradoxically increases translation of some mRNAs that contain multiple upstream ORF (uORF) in their 5′ untranslated regions (UTRs). In our assay, firefly (F) luciferase mRNA is fused to 5′UTR of activating transcription factor 4 (ATF-4) mRNA that has multiple uORFs while renilla (R) luciferase mRNA is fused to a 5′UTR lacking any uORFs. Compounds that reduce the amount of the ternary complex, such as those activating HRI, would increase F luciferase expression while decreasing the R luciferase expression, resulting in an increased F/R luciferase ratio. To calculate the activity scores, the F/R ratios for every compound-treated wells were normalized to vehicle-treated (DMSO) wells that was arbitrarily set at 1 (F/R=1).
# [2] = tested on: CRL-2813 human melanoma cancer cells; assay: cell proliferation (SRB) assay, CRL-2813; format: cell-based; conditions: read-out: IC50
# Description: Cells were seeded in 96-well plates and maintained for 5 days in the presence of 0.5 to 20 μM of individual compound, and cell proliferation was measured by the sulforhodamine B (SRB) assay as described previously (see, for example, Palakurthi, S. S. et al. Cancer Research 2000, 60(11), 2919-2925). Briefly, at the end of a 5-day treatment, cells were fixed in 10% cold trichloroacetic acid. Cell number was estimated by measuring the remaining bound dye of sulforhodamine B after washing. The percentage of growth was calculated by using the equation: 100×[(T−T0)/(C−T0)], where T and C represent the absorbance in treated and control cultures at Day 5, and T0 at time zero, respectively. If T is less than T0, cell death has occurred and can be calculated from 100×[(T−T0)/T0].
# [3] = ternary complex assay, F/R normalized to vehicle (DMSO = 1)
# [4] = cell proliferation assay (SRB, 5 days), cell line not named in Table 1, values equal CRL-2813 values of Tables 5/8
# [5] = Homo sapiens, CRL2813, cell proliferation assay, Table 3, cell line not named, values equal CRL-2813 values of Table 8
# [6] = Homo sapiens, CRL2813, cell proliferation assay, Table 4, cell line not named
# [7] = cell proliferation assay, Table 2, cell line not named
Compound,"Emax (F/R) [1, 3]","IC50 [2, 4]",Emax (F/R) ([1]; 7.5 μM compound),Emax (F/R) ([1]; 15 μM compound),Emax (F/R) ([1]; 30 μM compound),"IC50 [2, 7]",other results
O=C(Nc1ccccc1)NC1CCC(Oc2ccc(F)cc2)CC1 (stereo not drawn) [Compound I-13],1.65 F/R,20 ± 2 µM,,,,,
"O=C(Nc1cccc(C(F)(F)F)c1)NC1CCC(Oc2ccc(Cl)cc2)CC1 (stereo not drawn) [Compound I-16, 1-(4-(4-Chlorophenoxy)cyclohexyl)-3-(3-(trifluoromethyl)phenyl)urea]",,,,,,,"maximal fold induction ([1]; Table 3): 6.73; IC50 [2, 5]: 2 ± 0.1 µM"
O=C(Nc1cccc(C(=O)O)c1)NC1CCC(Oc2ccc(F)cc2)CC1 (stereo not drawn) [Compound I-12m],0.88 F/R,> 20 µM,,,,,
"O=C(Nc1cccc(C(F)(F)F)c1)NC1CCC(O)CC1 (stereo not drawn) [III-2, 1-(4-Hydroxycyclohexyl)-3-(3-(trifluoromethyl)phenyl)urea]",,,,,,,"maximal fold induction ([1]; Table 4): 0.89; IC50 [2, 6]: > 20 µM"
"O=C(Nc1cccc(C(F)(F)F)c1)NC1CCCCC1 [III-1, 1-Cyclohexyl-3-(3-(trifluoromethyl)phenyl)urea]",,,,,,,"maximal fold induction ([1]; Table 4): 1.87; IC50 [2, 6]: 13.2 ± 2.3 µM"
COc1ccccc1NC(=O)N[C@H]1CC[C@H](OCc2c(F)cccc2F)CC1 [II-8o],,,0.94 F/R,0.88 F/R,0.84 F/R,> 20 µM,
O=C(Nc1ccccc1I)N[C@H]1CC[C@H](OCc2c(F)cccc2F)CC1 [II-4o],,,0.81 F/R,0.74 F/R,0.81 F/R,> 20 µM,
O=C(Nc1ccccc1C(F)(F)F)N[C@H]1CC[C@H](OCc2c(F)cccc2F)CC1 [II-5o],,,0.95 F/R,0.80 F/R,0.64 F/R,> 20 µM,
O=C(Nc1ccccc1C(F)(F)F)NC1CCC(Oc2ccc(F)cc2)CC1 (stereo not drawn) [Compound I-5o],1.56 F/R,> 20 µM,,,,,
O=C(Nc1cccc(Cl)c1)NC1CCC(Oc2ccc(F)cc2)CC1 (stereo not drawn) [Compound I-2m],8.76 F/R,5.9 ± 0.6 µM,,,,,
Cc1ccc(NC(=O)NC2CCC(Oc3ccc(F)cc3)CC2)cc1 (stereo not drawn) [Compound I-7p],1.05 F/R,> 20 µM,,,,,
COc1ccc(NC(=O)N[C@H]2CC[C@H](OCc3c(F)cccc3F)CC2)cc1 [II-8p],,,0.74 F/R,0.71 F/R,0.68 F/R,> 20 µM,
"O=C(Nc1cccc(C(F)(F)F)c1)NC1CCC(Oc2ccccc2C(F)(F)F)CC1 (stereo not drawn) [Compound I-19, 1-(4-(2-(Trifluoromethyl)phenoxy)cyclohexyl)-3-(3-(trifluoromethyl)phenyl)urea]",,,,,,,"maximal fold induction ([1]; Table 3): 15.7; IC50 [2, 5]: 1.4 ± 0.3 µM"
O=C(Nc1ccccc1F)NC1CCC(Oc2ccc(F)cc2)CC1 (stereo not drawn) [Compound I-1o],2.10 F/R,17.5 ± 1.1 µM,,,,,
O=C(Nc1cccc(I)c1)NC1CCC(Oc2ccc(F)cc2)CC1 (stereo not drawn) [Compound I-4m],10.32 F/R,5.2 ± 0.2 µM,,,,,
O=C(Nc1ccccc1Br)N[C@H]1CC[C@H](OCc2c(F)cccc2F)CC1 [II-3o],,,0.96 F/R,0.99 F/R,0.96 F/R,> 20 µM,
Cc1cccc(NC(=O)N[C@H]2CC[C@H](OCc3c(F)cccc3F)CC2)c1 [II-7m],,,0.82 F/R,0.89 F/R,0.81 F/R,> 20 µM,
O=C(Nc1ccccc1[N+](=O)[O-])N[C@H]1CC[C@H](OCc2c(F)cccc2F)CC1 [II-9o],,,0.96 F/R,0.90 F/R,0.74 F/R,> 20 µM,
O=C(Nc1ccccc1Br)NC1CCC(Oc2ccc(F)cc2)CC1 (stereo not drawn) [Compound I-3o],5.23 F/R,7.7 ± 0.1 µM,,,,,
O=C(Nc1ccccc1)N[C@H]1CC[C@H](OCc2c(F)cccc2F)CC1 [II-11],,,0.89 F/R,0.88 F/R,0.81 F/R,> 20 µM,
O=C(Nc1cccc(C(F)(F)F)c1)N[C@H]1CC[C@H](OCc2c(F)cccc2F)CC1 [II-5m],,,1.13 F/R,1.15 F/R,1.11 F/R,> 20 µM,
